Test results from ChEMBL document CHEMBL1135847, “Structure-activity relationship of linear peptide Bu-His-DPhe-Arg-Trp-Gly-NH(2) at the human melanocortin-1 and -4 receptors: arginine substitution” (Bioorg Med Chem Lett, 2002).

Columns and labels:
Melanocortin receptor 4 [1] = target: T1, Melanocortin receptor 4 (Homo sapiens, UniProt P32245); assay: Agonist potency towards human Melanocortin 4 receptor; type: functional
[2] = target: T2, Melanocyte-stimulating hormone receptor (Homo sapiens, UniProt Q01726); assay: Agonist potency for human Melanocortin 1 receptor; type: functional
Target sequence in this assay (Q01726 whole entry): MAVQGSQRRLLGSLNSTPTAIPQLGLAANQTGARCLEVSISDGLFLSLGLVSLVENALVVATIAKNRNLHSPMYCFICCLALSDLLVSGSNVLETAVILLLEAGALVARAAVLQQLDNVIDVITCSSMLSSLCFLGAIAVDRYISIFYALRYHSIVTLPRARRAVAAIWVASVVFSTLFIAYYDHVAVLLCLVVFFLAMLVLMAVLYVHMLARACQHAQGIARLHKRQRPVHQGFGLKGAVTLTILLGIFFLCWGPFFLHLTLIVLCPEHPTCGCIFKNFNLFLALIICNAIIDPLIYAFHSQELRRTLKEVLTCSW

[3] = target: T2, Melanocyte-stimulating hormone receptor; assay: Agonist potency towards human Melanocortin 1 receptor at 50 uM; type: functional
Target sequence in this assay (Q01726 whole entry, looked up): as the sequence (Q01726 whole entry) above

Melanocortin receptor 4 [4] = target: T1, Melanocortin receptor 4; assay: Agonist potency towards human Melanocortin 4 receptor at 50 uM; type: functional
[5] = pKa value was evaluated; type: physicochemical

T1 sequence (P32245 whole entry): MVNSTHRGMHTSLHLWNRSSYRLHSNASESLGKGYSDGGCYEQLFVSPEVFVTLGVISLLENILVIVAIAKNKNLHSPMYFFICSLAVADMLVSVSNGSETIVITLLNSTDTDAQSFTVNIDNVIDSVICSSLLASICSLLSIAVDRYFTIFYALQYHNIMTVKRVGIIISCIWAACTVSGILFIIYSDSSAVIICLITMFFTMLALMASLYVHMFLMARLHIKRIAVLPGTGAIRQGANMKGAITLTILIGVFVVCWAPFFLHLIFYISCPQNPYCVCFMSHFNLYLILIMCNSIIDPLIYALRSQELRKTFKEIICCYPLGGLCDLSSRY

SMILES	EC50 (Melanocortin receptor 4 [1]) [nM]	EC50 [2] [nM]	pKa [5]	Activity [3] [%]	Activity (Melanocortin receptor 4 [4]) [%]
CCCCN[C@@H](Cc1cnc[nH]1)C(=O)N[C@H](Cc1ccccc1)C(=O)N[C@@H](CCCN(C)C)C(=O)N[C@@H](Cc1c[nH]c2ccccc12)C(=O)NCC(N)=O	3280	350	–	–	–
CCCCN[C@@H](Cc1c[nH]cn1)C(=O)N[C@H](Cc1ccccc1)C(=O)N[C@@H](CCC/N=C(/N)N[N+](=O)[O-])C(=O)N[C@@H](Cc1c[nH]c2ccccc12)C(=O)NCC(N)=O	–	–	–	40	85
CCCCN[C@@H](Cc1cnc[nH]1)C(=O)N[C@H](Cc1ccccc1)C(=O)N[C@@H](CCCNC(=N)N)C(=O)N[C@@H](Cc1c[nH]c2ccccc12)C(=O)NCC(N)=O	20	10	–	–	–
CCCCN[C@@H](Cc1cnc[nH]1)C(=O)N[C@H](Cc1ccccc1)C(=O)N[C@@H](CCCNC(N)=NC#N)C(=O)N[C@@H](Cc1c[nH]c2ccccc12)C(=O)NCC(N)=O	70	15	~0	–	–
CCCCN[C@@H](Cc1cnc[nH]1)C(=O)N[C@H](Cc1ccccc1)C(=O)N[C@@H](CCCCNCc1ccccc1)C(=O)N[C@@H](Cc1c[nH]c2ccccc12)C(=O)NCC(N)=O	4800	85	–	–	–

Now from value to compound, other results behind:

EC50 (Melanocortin receptor 4 [1]) [nM]	EC50 [2] [nM]	pKa [5]	SMILES	Activity [3] [%]	Activity (Melanocortin receptor 4 [4]) [%]
2500	900	–	CCCCN[C@@H](Cc1c[nH]cn1)C(=O)N[C@H](Cc1ccccc1)C(=O)N[C@@H](CCCN)C(=O)N[C@@H](Cc1c[nH]c2ccccc12)C(=O)NCC(N)=O	–	–
1420	1700	–	CCCCN[C@@H](Cc1c[nH]cn1)C(=O)N[C@H](Cc1ccccc1)C(=O)N[C@@H](Cc1c[nH]cn1)C(=O)N[C@@H](Cc1c[nH]c2ccccc12)C(=O)NCC(N)=O	–	–
1670	60	–	CCCCN[C@@H](Cc1c[nH]cn1)C(=O)N[C@H](Cc1ccccc1)C(=O)N[C@@H](CCCCN(C)C)C(=O)N[C@@H](Cc1c[nH]c2ccccc12)C(=O)NCC(N)=O	–	–
760	950	–	CCCCN[C@@H](Cc1cnc[nH]1)C(=O)N[C@H](Cc1ccccc1)C(=O)N[C@@H](CCCNC(N)=O)C(=O)N[C@@H](Cc1c[nH]c2ccccc12)C(=O)NCC(N)=O	–	–
10	1	~7	CCCCN[C@@H](Cc1cnc[nH]1)C(=O)N[C@H](Cc1ccccc1)C(=O)N[C@@H](CCC(=O)NC(=N)N)C(=O)N[C@@H](Cc1c[nH]c2ccccc12)C(=O)NCC(N)=O	–	–
–	255	–	CCCCN[C@@H](Cc1c[nH]cn1)C(=O)N[C@H](Cc1ccccc1)C(=O)N[C@@H](CCCCNC(C)C)C(=O)N[C@@H](Cc1c[nH]c2ccccc12)C(=O)NCC(N)=O	–	25
